Source: patent publication US20250034135A1, “ANTI-APOPTOTIC PROTEIN BCL-2 INHIBITOR, PHARMACEUTICAL COMPOSITION AND USES THEREOF” (HANGZHOU HEALZEN THERAPEUTICS CO., LTD., priority 2021, published 2025)
Read-outs that look alike come from different tables or passages of the source.

What was measured:
human CYP3A4 enzyme = human CYP3A4 enzyme (Homo sapiens (Human), UniProt P08684); assay: CYP3A4 enzyme inhibitory activity (Vivid CYP3A4 Green screening kit)
Description: The inhibitory activity of compounds on human CYP3A4 enzyme was detected using a VIVID™ CYP3A4 GREEN SCRNING KIT reagent kit. The Vivid™ CYP450 screening kit includes a Vivid™ substrate, Vivid™ fluorescence standard, reaction buffer, Vivid™ regeneration system, NADP+ and CYP450 BACULOSOMES™ Plus reagent. Operations were performed following the instructions, and a blank control group was set up without adding any compounds.
The IC50 value of the compounds inhibiting human CYP3A4 enzyme was calculated using Graphpad Prism 7.00 software through the formula Y=100/(1+10^((Log IC50−X)*HillSlope)).

BCL2 = BCL2 (Homo sapiens (Human), UniProt P10415); assay: Molecular level activity test of anti-apoptotic protein BCL2 (HTRF, binding to Bim peptide)
Procedure, shortened: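 Signal comes from proximity of anti-His-labelled BCL2 and streptavidin-XL665-bound biotin-BIM peptide. Test compounds, added in 2% DMSO, were preincubated with protein and peptide for one hour; detection reagents then incubated four hours at room temperature before reading.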

BCL2 (G101V) = BCL2 (G101V) (Homo sapiens (Human), UniProt P10415, G101V); assay: Molecular level activity test of anti-apoptotic protein BCL2 (G101V) (HTRF, binding to Bim peptide); conditions: inhibition of BCL2 (G101V) binding to Bim peptide, read-out: BCL-2 (G101V)
Procedure, shortened: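 His-tagged recombinant BCL2 (G101V) incubated 1 h with biotin-BIM peptide and compound (2% DMSO), then anti-His and streptavidin-XL665 detection reagents added for 4 h at room temperature. HTRF signal reflects compound effect on BCL2–BIM binding.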

RS4; 11 cells = assay: Tumor proliferation inhibitory activity test (MTS) on RS4; 11; format: cell-based; conditions: Homo sapiens, RS4-11, 72 h, 3 days incubation
Procedure, shortened: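 RS4;11 cells were exposed to serially diluted compound (0.2% DMSO control) for 3 days at 37 °C/5% CO2, followed by MTS for 3–4 h. Read-out was OD490−OD690, and inhibition was calculated relative to the DMSO and blank wells.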

BCL2 (D103Y) = BCL2 (D103Y) (Homo sapiens (Human), UniProt P10415, D103Y); assay: Molecular level activity test of BCL2 (D103Y) (HTRF, binding to Bim peptide); conditions: read-out: BCL-2 (D103Y) (nM) (inhibitory activity, IC50)
Procedure, shortened: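 His-tagged recombinant protein mixed with biotinylated BIM peptide and compound (2% DMSO), reacted 1 h. Anti-His and streptavidin-XL665 detection reagents then added and incubated 4 h at room temperature before HTRF read-out of binding inhibition.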

BCL-XL = BCL-XL (Homo sapiens (Human), UniProt Q07817); assay: BCL-XL enzyme molecular level activity test (HTRF, binding to BIM peptide); conditions: binding of BCL-XL to BIM peptide, read-out: BCL-XL inhibitory activity (IC50)
BCL-XL, sequence (Q07817 whole entry): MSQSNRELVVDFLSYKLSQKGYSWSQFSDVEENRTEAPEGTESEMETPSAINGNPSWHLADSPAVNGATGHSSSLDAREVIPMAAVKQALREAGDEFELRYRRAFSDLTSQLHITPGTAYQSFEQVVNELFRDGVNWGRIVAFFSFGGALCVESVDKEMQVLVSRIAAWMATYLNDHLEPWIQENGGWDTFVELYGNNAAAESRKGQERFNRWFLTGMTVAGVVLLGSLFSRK
Procedure, shortened: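 HTRF binding assay: His-tagged recombinant BCL-XL with biotin-BIM peptide and compound (2% DMSO), 1 h. Anti-His and streptavidin-XL665 detection reagents added, 4 h at room temperature. Excitation 320 nm; 665/615 nm ratio reflects binding, with no-protein background and no-compound full-binding controls.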

[1] = read-out: CYP3A4 (IC50), Vivid CYP3A4 Green screening kit
[2] = HTRF, binding of BCL2 to Bim peptide, read-out: BCL2 nM (inhibitory activity, IC50)

human CYP3A4 enzyme, sequence (P08684 whole entry): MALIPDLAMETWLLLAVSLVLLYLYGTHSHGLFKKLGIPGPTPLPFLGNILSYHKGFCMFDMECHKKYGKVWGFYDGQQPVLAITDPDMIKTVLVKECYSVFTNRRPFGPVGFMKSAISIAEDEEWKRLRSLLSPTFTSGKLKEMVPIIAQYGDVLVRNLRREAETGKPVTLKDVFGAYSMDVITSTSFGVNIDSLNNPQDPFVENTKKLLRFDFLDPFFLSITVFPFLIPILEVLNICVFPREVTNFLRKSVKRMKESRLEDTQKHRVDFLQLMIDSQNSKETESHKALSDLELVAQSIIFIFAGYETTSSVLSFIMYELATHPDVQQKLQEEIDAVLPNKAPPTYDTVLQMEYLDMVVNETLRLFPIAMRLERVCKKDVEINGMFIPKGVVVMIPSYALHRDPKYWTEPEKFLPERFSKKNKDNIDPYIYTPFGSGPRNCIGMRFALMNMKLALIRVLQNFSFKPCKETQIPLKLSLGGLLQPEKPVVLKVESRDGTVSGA

Structure (SMILES) | IC50 (human CYP3A4 enzyme; [1]) | IC50 (BCL2; [2]) | IC50 (BCL2 (G101V)) | IC50 (RS4; 11 cells) | IC50 (BCL2 (D103Y)) | IC50 (BCL-XL; values given in μM) | IC50 (BCL-XL; values in nM) | IC50 (human CYP3A4 enzyme) | IC50 (BCL2)
COc1ccc(CN2CCN(C3CC4(CCN(c5ccc(C(=O)NS(=O)(=O)c6cc([N+](=O)[O-])c(NC[C@H]7CC[C@](C)(O)CC7)c7[nH]cnc67)c(Oc6cnc7[nH]ccc7c6)c5)CC4)C3)[C@H](c3ccccc3C(C)C)C2)cc1 [compound 259, 2-((1H-pyrrolo[2,3-b]pyrid-5-yl)oxy)-N-((7-((((1r,4r)-4-hydroxy-4-methylcyclohexyl)methyl)amino)-6-nitro-1H-benzo[d]imidazol-4-yl)sulfonyl)-4-(2-((R)-2-(2-isopropylphenyl)-4-(4-methoxybenzyl)piperazin-1-yl)-7-azaspiro[3.5]non-7-yl)benzamide] | > 20 µM | < 0.01 µM | < 0.01 µM | < 0.0005 µM | < 10 nM | – | – | – | –
COc1ccc(CN2CCN(C3CC4(CCN(c5cc(Oc6cnc7[nH]ccc7c6)c(C(=O)NS(=O)(=O)c6ccc(NCC7CCOCC7)c([N+](=O)[O-])c6)cn5)CC4)C3)[C@H](c3ccccc3C(C)C)C2)cc1 [compound 257, (R)-4-((1H-pyrrolo[2,3-b]pyrid-5-yl)oxy)-6-(2-(2-(2-isopropylphenyl)-4-(4-methoxybenzyl)piperazin-1-yl)-7-azaspiro[3.5]non-7-yl)-N-((3-nitro-4-(((tetrahydro-2H-pyran-4-yl)methyl)amino)phenyl)sulfonyl) nicotinamide] | > 20 µM | < 0.01 µM | < 0.01 µM | < 0.0005 µM | < 10 nM | – | – | – | –
COc1ccc(CN2CCN(C3CC4(CCN(c5cc(Oc6cnc7[nH]ccc7c6)c(C(=O)NS(=O)(=O)c6cc([N+](=O)[O-])c(NC[C@H]7CC[C@](C)(O)CC7)c7[nH]cnc67)cc5F)CC4)C3)[C@H](c3ccccc3C(C)C)C2)cc1 [compound 262, 2-((1H-pyrrolo[2,3-b]pyrid-5-yl)oxy)-5-fluoro-N-((7-((((1r,4r)-4-hydroxy-4-methylcyclohexyl)methyl)amino)-6-nitro-1H-benzo[d]imidazol-4-yl)sulfonyl)-4-(2-((R)-2-(2-isopropylphenyl)-4-(4-methoxybenzyl)piperazin-1-yl)-7-azaspiro[3.5]non-7-yl)benzamide] | > 20 µM | < 0.01 µM | < 0.01 µM | 0.0005 to 0.001 µM | < 10 nM | > 1 µM | – | – | –
COc1ccc(CN2CCN(C3CC4(CCN(c5cc(Oc6cnc7[nH]ccc7c6)c(C(=O)NS(=O)(=O)c6ccc(NCC7(F)CCOCC7)c([N+](=O)[O-])c6)cn5)CC4)C3)[C@H](c3ccccc3C(C)C)C2)cc1 [compound 258, (R)-4-((1H-pyrrolo[2,3-b]pyrid-5-yl)oxy)-N-((4-(((4-fluorotetrahydro-2H-pyran-4-yl)methyl)amino)-3-nitrophenyl)sulfonyl)-6-(2-(2-(2-isopropylphenyl)-4-(4-methoxybenzyl)piperazin-1-yl)-7-azaspiro[3.5]non-7-yl) nicotinamide] | > 20 µM | < 0.01 µM | < 0.01 µM | < 0.0005 µM | < 10 nM | – | – | – | –
COc1ccc(CN2CCN(C3CC4(CCN(c5cc(Oc6cnc7[nH]ccc7c6)c(C(=O)NS(=O)(=O)c6cc([N+](=O)[O-])c(NCC7(F)CCOCC7)c7[nH]cnc67)cc5F)CC4)C3)[C@H](c3ccccc3C(C)C)C2)cc1 [compound 264, (R)-2-((1H-pyrrolo[2,3-b]pyrid-5-yl)oxy)-5-fluoro-N-((7-(((4-fluorotetrahydro-2H-pyran-4-yl)methyl)amino)-6-nitro-1H-benzo[d]imidazol-4-yl)sulfonyl)-4-(2-(2-(2-isopropylphenyl)-4-(4-methoxybenzyl)piperazin-1-yl)-7-azaspiro[3.5]non-7-yl)benzamide] | > 20 µM | < 0.01 µM | < 0.01 µM | 0.0005 to 0.001 µM | < 10 nM | – | – | – | –
COc1ccc(CN2CCN(C3CC4(CCN(c5cc(Oc6cnc7[nH]ccc7c6)c(C(=O)NS(=O)(=O)c6cc([N+](=O)[O-])c(NCC7CCOCC7)c7[nH]cnc67)cc5F)CC4)C3)[C@H](c3ccccc3C(C)C)C2)cc1 [compound 263, (R)-2-((1H-pyrrolo[2,3-b]pyrid-5-yl)oxy)-5-fluoro-4-(2-(2-(2-isopropylphenyl)-4-(4-methoxybenzyl)piperazin-1-yl)-7-azaspiro[3.5]non-7-yl)-N-((6-nitro-7-(((tetrahydro-2H-pyran-4-yl)methyl)amino)-1H-benzo[d]imidazol-4-yl)sulfonyl)benzamide] | > 20 µM | < 0.01 µM | < 0.01 µM | 0.0005 to 0.001 µM | < 10 nM | 1.3 µM | – | – | –
COc1ccc(CN2CCN(C3CC4(CCN(c5cc(Oc6cnc7[nH]ccc7c6)c(C(=O)NS(=O)(=O)c6cc([N+](=O)[O-])c(NCC7(F)CCOCC7)c7[nH]cnc67)cn5)CC4)C3)[C@H](c3ccccc3C(C)C)C2)cc1 [compound 268, (R)-4-((1H-pyrrolo[2,3-b]pyrid-5-yl)oxy)-N-((7-(((4-fluorotetrahydro-2H-pyran-4-yl)methyl)amino)-6-nitro-1H-benzo[d]imidazol-4-yl)sulfonyl)-6-(2-(2-(2-isopropylphenyl)-4-(4-methoxybenzyl)piperazin-1-yl)-7-azaspiro[3.5]non-7-yl) nicotinamide] | > 20 µM | < 0.01 µM | < 0.01 µM | < 0.0005 µM | < 10 nM | – | > 0.5 µM | – | –
CC(C)c1ccccc1[C@@H]1CCCN1C1CC2(CCN(c3ccc(C(=O)NS(=O)(=O)c4cc([N+](=O)[O-])c(NCC5(F)CCN(C6COC6)CC5)c5[nH]cnc45)c(Oc4cnc5[nH]ccc5c4)c3)CC2)C1 [compound 002] | – | < 0.01 µM | < 0.01 µM | 0.0005 to 0.001 µM | < 10 nM | – | > 0.5 µM | > 20 µM | –
COc1ccc(CN2CCN(C3CC4(CCN(c5cc(Oc6cnc7[nH]ccc7c6)c(C(=O)NS(=O)(=O)c6ccc(NCC7(F)CCN(C8COC8)CC7)c([N+](=O)[O-])c6)cn5)CC4)C3)C(c3ccccc3C(C)C)C2)cc1 (stereo not drawn) [compound 053, 4-((1H-pyrrolo[2,3-b]pyrid-5-yl)oxy)-N-((4-(((4-fluoro-1-(oxocyclobut-3-yl)piperid-4-yl)methyl)amino)-3-nitrophenyl)sulfonyl)-6-(2-(2-(2-isopropylphenyl)-4-(4-methoxybenzyl)piperazin-1-yl)-7-azaspiro[3.5]non-7-yl) nicotinamide] | > 20 µM | < 0.01 µM | < 0.01 µM | < 0.0005 µM | < 10 nM | – | – | – | –
CC(C)c1ccccc1[C@@H]1CN(Cc2cccc(F)c2F)CCN1C1CC2(CCN(c3cc(Oc4cnc5[nH]ccc5c4)c(C(=O)NS(=O)(=O)c4ccc(NCC5(F)CCOCC5)c([N+](=O)[O-])c4)cc3F)CC2)C1 [compound 189, (R)-2-((1H-pyrrolo[2,3-b]pyrid-5-yl)oxy)-4-(2-(4-(2,3-difluorobenzyl)-2-(2-isopropylphenyl)piperazin-1-yl)-7-azaspiro[3.5]non-7-yl)-5-fluoro-N-((4-(((4-fluorotetrahydro-2H-pyran-4-yl)methyl)amino)-3-nitrophenyl)sulfonyl)benzamide] | > 20 µM | < 0.01 µM | < 0.01 µM | < 0.0005 µM | < 10 nM | 1.9 µM | – | – | –
COc1ccc(CN2CCN(C3CC4(CCN(c5cc(Oc6cnc7[nH]ccc7c6)c(C(=O)NS(=O)(=O)c6ccc(NCC7CCOCC7)c([N+](=O)[O-])c6)cn5)CC4)C3)C(c3ccccc3C(C)C)C2)cc1 (stereo not drawn) [compound 063, 4-((1H-pyrrolo[2,3-b]pyrid-5-yl)oxy)-6-(2-(2-(2-isopropylphenyl)-4-(4-methoxybenzyl)piperazin-1-yl)-7-azaspiro[3.5]non-7-yl)-N-((3-nitro-4-(((tetrahydro-2H-pyran-4-yl)methyl)amino)phenyl)sulfonyl) nicotinamide] | > 20 µM | < 0.01 µM | < 0.01 µM | < 0.0005 µM | < 10 nM | > 1 µM | – | – | –
COc1ccc(CN2CCN(C3CC4(CCN(c5cc(Oc6cnc7[nH]cc(F)c7c6)c(C(=O)NS(=O)(=O)c6ccc(NCC7(F)CCOCC7)c([N+](=O)[O-])c6)cc5F)CC4)C3)[C@H](c3ccccc3C(C)C)C2)cc1OC [compound 253, (R)-4-(2-(4-(3,4-dimethoxybenzyl)-2-(2-isopropylphenyl)piperazin-1-yl)-7-azaspiro[3.5]non-7-yl)-5-fluoro-2-((3-fluoro-1H-pyrrolo[2,3-b]pyrid-5-yl)oxy)-N-((4-(((4-fluorotetrahydro-2H-pyran-4-yl)methyl)amino)-3-nitrophenyl)sulfonyl)benzamide] | – | – | < 0.01 µM | 0.0005 to 0.001 µM | < 10 nM | – | > 0.5 µM | – | < 0.01 µM
